The values that follow come from patent publication US20250084056A1, “SUBSTITUTED OXOISOINDOLINYL PIPERIDINE-2,6-DIONE COMPOUNDS” (BRISTOL-MYERS SQUIBB COMPANY, priority 2023, published 2025).

Type in all cases: cell-based
The test system of assay [1] is Phospho-Rb (Ser807/811). Nature of the assay: Phospho-Retinoblastoma (pRB) Cellular Assay. To be noted: Homo sapiens, OVCAR-3, NIH OVCAR3 cells, 24 hours; for pIC50: concentration giving 50% response; for Emax: maximum response, reference compound at 10 μM = 100%, read-out: pRB Ymax. An outline of the steps: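 Phospho-Rb (Ser807/811) kit read-out on EnVision after lysis (≥4 h, room temperature, dark) of OVCAR3 cells exposed to compound dilutions for 24 h. IC50 and maximum response Ymax are relative to a 10 μM reference compound defining 100%.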

Assay [2] concerns the target Cyclin E1 (Homo sapiens, UniProt P24864+Q96SW2). Briefly: Cyclin E1 Cellular Degradation Assay (MSD). On the set-up: endogenous in cells; host or cells: OVCAR3. The note with it: for DC50 / Dmax: Cyclin E1 cellular degradation; for Dmax: maximum degradation; for Ratio of GSPT1 DC50/Cyclin E1 DC50: selectivity for degradation of Cyclin E1 over GSPT1. The gist of the method: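 Cyclin E1 remaining after 24 h compound exposure of OVCAR3 cells was quantified in lysates by electrochemiluminescent MSD sandwich assay. DC50 (50% response concentration) and Dmax (maximum response) were calculated, with 110% response set by a reference compound at […].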

Assay [3] deals with GSPT1 (Homo sapiens, UniProt P15170+Q96SW2). Nature of the assay: GSPT1 Cellular Degradation Assay (DF15-GSPT1-ePL). Set-up: expressed in transfected cells. The note with it: DF15-GSPT1-ePL cells, 20 hours. An outline of the steps:
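DC50 and Dmax were derived from chemiluminescence, with 75% response set by the reference compound at […]. Readout was ePL enzyme-fragment complementation in a DF15 line expressing chimeric GSPT1. Cells were exposed to compound for 20 h at 37 °C in RPMI 1640 with 10% FBS, cooled 30 min, then lysed with substrate for 60 min.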

pIC50: −log10 of the molar value.

Sequence of GSPT1 (P15170 whole entry, the tested form may be a part): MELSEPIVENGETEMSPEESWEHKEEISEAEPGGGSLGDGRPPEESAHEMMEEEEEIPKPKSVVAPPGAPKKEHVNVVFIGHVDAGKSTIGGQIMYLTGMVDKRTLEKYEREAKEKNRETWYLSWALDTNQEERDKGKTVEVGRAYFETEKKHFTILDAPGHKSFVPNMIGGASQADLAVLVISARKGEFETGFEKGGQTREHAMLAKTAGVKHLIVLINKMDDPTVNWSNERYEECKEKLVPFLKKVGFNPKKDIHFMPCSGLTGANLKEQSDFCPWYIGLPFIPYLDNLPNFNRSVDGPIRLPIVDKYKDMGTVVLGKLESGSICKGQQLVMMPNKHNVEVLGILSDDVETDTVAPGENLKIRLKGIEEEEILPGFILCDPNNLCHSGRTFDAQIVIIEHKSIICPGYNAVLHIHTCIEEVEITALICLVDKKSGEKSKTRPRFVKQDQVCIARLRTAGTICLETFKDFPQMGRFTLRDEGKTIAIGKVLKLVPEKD
Sequence of GSPT1 (Q96SW2 whole entry, the tested form may be a part): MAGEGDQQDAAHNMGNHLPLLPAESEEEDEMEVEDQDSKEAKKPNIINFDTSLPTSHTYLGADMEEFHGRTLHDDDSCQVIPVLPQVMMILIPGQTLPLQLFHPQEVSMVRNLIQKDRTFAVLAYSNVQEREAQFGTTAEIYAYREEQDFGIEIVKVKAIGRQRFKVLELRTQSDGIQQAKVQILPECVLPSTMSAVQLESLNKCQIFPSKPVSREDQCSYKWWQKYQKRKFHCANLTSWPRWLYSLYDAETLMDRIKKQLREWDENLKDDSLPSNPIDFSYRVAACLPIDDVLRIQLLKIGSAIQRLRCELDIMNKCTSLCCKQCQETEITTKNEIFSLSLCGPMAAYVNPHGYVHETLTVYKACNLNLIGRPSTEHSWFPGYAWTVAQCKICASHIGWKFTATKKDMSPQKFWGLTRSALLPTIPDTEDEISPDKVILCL
Sequence of GSPT1 (Q16531 whole entry partner, the tested form may be a part): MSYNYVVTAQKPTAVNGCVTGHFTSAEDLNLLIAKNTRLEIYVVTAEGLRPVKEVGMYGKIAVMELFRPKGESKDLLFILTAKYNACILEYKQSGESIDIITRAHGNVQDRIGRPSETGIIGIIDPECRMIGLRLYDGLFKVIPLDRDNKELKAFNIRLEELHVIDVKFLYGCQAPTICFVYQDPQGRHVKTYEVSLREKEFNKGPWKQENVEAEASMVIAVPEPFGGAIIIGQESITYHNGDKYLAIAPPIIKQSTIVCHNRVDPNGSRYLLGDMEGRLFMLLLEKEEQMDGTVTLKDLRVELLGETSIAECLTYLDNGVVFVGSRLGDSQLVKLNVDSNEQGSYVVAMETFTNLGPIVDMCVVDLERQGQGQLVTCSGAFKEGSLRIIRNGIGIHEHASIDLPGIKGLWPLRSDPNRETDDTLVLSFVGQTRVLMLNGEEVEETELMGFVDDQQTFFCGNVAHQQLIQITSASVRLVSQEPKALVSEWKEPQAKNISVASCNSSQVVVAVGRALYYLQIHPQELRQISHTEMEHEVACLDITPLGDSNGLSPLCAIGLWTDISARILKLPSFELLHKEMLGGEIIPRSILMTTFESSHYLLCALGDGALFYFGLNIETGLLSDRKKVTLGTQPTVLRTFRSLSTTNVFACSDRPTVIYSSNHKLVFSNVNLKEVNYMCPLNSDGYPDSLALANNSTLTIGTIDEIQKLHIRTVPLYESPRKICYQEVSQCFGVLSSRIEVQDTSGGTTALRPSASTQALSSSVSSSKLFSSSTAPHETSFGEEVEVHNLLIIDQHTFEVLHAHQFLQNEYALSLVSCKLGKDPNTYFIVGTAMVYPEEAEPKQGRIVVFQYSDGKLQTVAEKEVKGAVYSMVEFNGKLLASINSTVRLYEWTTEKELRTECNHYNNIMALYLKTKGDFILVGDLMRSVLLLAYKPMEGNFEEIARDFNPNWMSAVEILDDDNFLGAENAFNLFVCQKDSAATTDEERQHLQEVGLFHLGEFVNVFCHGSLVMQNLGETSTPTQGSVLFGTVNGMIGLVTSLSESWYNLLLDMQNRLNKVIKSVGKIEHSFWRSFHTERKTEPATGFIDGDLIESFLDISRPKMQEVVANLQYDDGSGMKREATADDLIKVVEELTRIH
Sequence of Cyclin E1 (P24864 whole entry): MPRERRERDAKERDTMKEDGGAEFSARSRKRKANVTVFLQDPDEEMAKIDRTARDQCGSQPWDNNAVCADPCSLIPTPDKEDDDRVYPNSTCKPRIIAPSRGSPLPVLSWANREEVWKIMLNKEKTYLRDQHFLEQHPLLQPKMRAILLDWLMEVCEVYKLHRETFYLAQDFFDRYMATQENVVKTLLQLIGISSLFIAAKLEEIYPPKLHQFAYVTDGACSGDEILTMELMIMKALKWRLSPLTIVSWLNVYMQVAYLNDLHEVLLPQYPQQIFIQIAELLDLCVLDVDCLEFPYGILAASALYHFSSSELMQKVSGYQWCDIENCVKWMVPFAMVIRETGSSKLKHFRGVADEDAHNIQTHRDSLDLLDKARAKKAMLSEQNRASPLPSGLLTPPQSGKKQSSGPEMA
Sequence of Cyclin E1 (Q96SW2 whole entry): as the sequence (Q96SW2 whole entry, the tested form may be a part) above
Sequence of Cyclin E1 (Q16531 whole entry partner): as the sequence (Q16531 whole entry partner, the tested form may be a part) above

As to `O=C1CCC(N2Cc3ccc(COC(=O)Nc4ccc(Oc5ccc(F)cc5)cc4)c(OC4CCOCC4)c3C2=O)C(=O)N1` (centres unmarked) [Example 133, [2-(2,6-dioxopiperidin-3-yl)-4-(oxan-4-yloxy)-3-oxo-2,3-dihydro-1H-isoindol-5-yl]methyl N-[4-(4-fluorophenoxy)phenyl]carbamate], in assay [1], the pIC50 (as a rule, the negative decadic logarithm of the IC50, by convention in mol/L) is 7.38 and the Emax is 145%. Moreover, in assay [2], it took 25 nM to reach half-maximal degradation (DC50); the Dmax – broadly, the greatest extent of degradation seen – was determined as 106%; the “Ratio of GSPT1 DC50/Cyclin E1 DC50” value is over 569. Also, in assay [3], the DC50 (usually the concentration at which degradation of the target reaches its halfway point) was over 14000 nM and the Dmax came out at 16%.
Turning to `O=C1CCC(N2Cc3ccc(COC(=O)Nc4ccc(Oc5ccccc5)cc4)c(OC4CCOCC4)c3C2=O)C(=O)N1` (centres unmarked) [Example 134, [2-(2,6-dioxopiperidin-3-yl)-4-(oxan-4-yloxy)-3-oxo-2,3-dihydro-1H-isoindol-5-yl]methyl N-(4-phenoxyphenyl)carbamate], in assay [1], the pIC50 was 7.85 and the Emax is 144%. Besides, in assay [2], the DC50 came to 13 nM, the Dmax is 107% and the “Ratio of GSPT1 DC50/Cyclin E1 DC50” value is reported as >1,066. Moreover, in assay [3], the DC50 is over 14000 nM and the Dmax stood at 0%.
With `O=C1CCC(N2Cc3ccc(COC(=O)Nc4ccc(Oc5ccc(F)cc5)cc4F)c(OC4CCOCC4)c3C2=O)C(=O)N1` (centres unmarked) [Example 135, [2-(2,6-dioxopiperidin-3-yl)-4-(oxan-4-yloxy)-3-oxo-2,3-dihydro-1H-isoindol-5-yl]methyl N-[2-fluoro-4-(4-fluorophenoxy)phenyl]carbamate], in assay [1], the pIC50 is 7.57 and the Emax was determined as 148%. In assay [2], the DC50 worked out at 17 nM, the Dmax turned out to be 110% and the “Ratio of GSPT1 DC50/Cyclin E1 DC50” value is over 847. Besides, in assay [3], the DC50 is over 14000 nM and the Dmax was determined as 5%.
For the compound `O=C1CCC(N2Cc3ccc(COC(=O)Nc4ccc(Oc5ccc(F)cc5F)cc4F)c(OC4CCOCC4)c3C2=O)C(=O)N1` (centres unmarked) [Example 136, [2-(2,6-dioxopiperidin-3-yl)-4-(oxan-4-yloxy)-3-oxo-2,3-dihydro-1H-isoindol-5-yl]methyl N-[4-(2,4-difluorophenoxy)-2-fluorophenyl]carbamate], in assay [1], the pIC50 was 7.62 and the Emax is 144%. Moreover, in assay [2], the DC50 was 38 nM, the Dmax was determined as 110% and the “Ratio of GSPT1 DC50/Cyclin E1 DC50” value is on record as over 368. Moreover, in assay [3], the DC50 is over 14000 nM and the Dmax came out at 11%.
For `O=C1CCC(N2Cc3ccc(COC(=O)Nc4ccc(Oc5ccc(F)c(F)c5)cc4)c(OC4CCCCC4)c3C2=O)C(=O)N1` (centres unmarked) [Example 137, [4-(cyclohexyloxy)-2-(2,6-dioxopiperidin-3-yl)-3-oxo-2,3-dihydro-1H-isoindol-5-yl]methyl N-[4-(3,4-difluorophenoxy)phenyl]carbamate], in assay [1], the negative-log IC50 (pIC50) is 7.72 and the Emax amounted to 123%. Moreover, in assay [2], the half-maximal degradation concentration (DC50) came out at 26 nM, the Dmax was 108% and the “Ratio of GSPT1 DC50/Cyclin E1 DC50” value was over 547. Besides, in assay [3], the DC50 is over 14000 nM and the Dmax is 1%.
With `CC(C)COc1c(COC(=O)Nc2ccc(Oc3ccc(F)c(F)c3)cc2)ccc2c1C(=O)N(C1CCC(=O)NC1=O)C2` (centres unmarked) [Example 138, [2-(2,6-dioxopiperidin-3-yl)-4-(2-methylpropoxy)-3-oxo-2,3-dihydro-1H-isoindol-5-yl]methyl N-[4-(3,4-difluorophenoxy)phenyl]carbamate], in assay [1], the pIC50 is 7.35 and the Emax turned out to be 120%. For the same compound, in assay [2], half-maximal degradation (DC50) was put at 173 nM, the Dmax came out at 108% and the “Ratio of GSPT1 DC50/Cyclin E1 DC50” value is reported as over 81. Further, in assay [3], the DC50 is over 14000 nM and the Dmax is 9%.
Regarding `O=C1CCC(N2Cc3ccc(COC(=O)Nc4ccc(Oc5ccc(F)cc5F)cc4)c(OC4CCOCC4)c3C2=O)C(=O)N1` (centres unmarked) [Example 139, [2-(2,6-dioxopiperidin-3-yl)-4-(oxan-4-yloxy)-3-oxo-2,3-dihydro-1H-isoindol-5-yl]methyl N-[4-(2,4-difluorophenoxy)phenyl]carbamate], in assay [1], the pIC50 is 7.57 and the Emax is 170%. Further, in assay [2], half-maximal degradation (DC50) was put at 67 nM, the Dmax stood at 105% and the “Ratio of GSPT1 DC50/Cyclin E1 DC50” value is reported as over 210. Also, in assay [3], the 50% degradation concentration (DC50) is over 14000 nM and the Dmax was 8%.
In the case of `O=C1CCC(N2Cc3ccc(COC(=O)Nc4ccc(Oc5cc(F)cc(F)c5)cc4F)c(OC4CCOCC4)c3C2=O)C(=O)N1` (centres unmarked) [Example 140, [2-(2,6-dioxopiperidin-3-yl)-4-(oxan-4-yloxy)-3-oxo-2,3-dihydro-1H-isoindol-5-yl]methyl N-[4-(3,5-difluorophenoxy)-2-fluorophenyl]carbamate], in assay [1], the pIC50 is 7.80 and the Emax came to 132%. Also, in assay [2], the DC50 came out at 30 nM, the Dmax was found to be 105% and the “Ratio of GSPT1 DC50/Cyclin E1 DC50” value was over 474. In assay [3], the DC50 was over 14000 nM and the Dmax worked out at 0%.
As for `O=C1CCC(N2Cc3ccc(COC(=O)Nc4ccc(Oc5ccc(F)c(F)c5)cc4)c(O[C@@H]4CCCOC4)c3C2=O)C(=O)N1` (stereo partly drawn) [Example 141, [2-(2,6-dioxopiperidin-3-yl)-4-[(3R)-oxan-3-yloxy]-3-oxo-2,3-dihydro-1H-isoindol-5-yl]methyl N-[4-(3,4-difluorophenoxy)phenyl]carbamate], in assay [1], the pIC50 was 7.26 and the Emax stood at 136%. In assay [2], the DC50 amounted to 34 nM, the Dmax came out at 112% and the “Ratio of GSPT1 DC50/Cyclin E1 DC50” value was over 418. Further, in assay [3], the DC50 was over 14000 nM and the Dmax was 9%.
Turning to `O=C1CCC(N2Cc3ccc(COC(=O)Nc4ccc(Oc5ccccc5)cc4)c(O[C@@H]4CCCOC4)c3C2=O)C(=O)N1` (stereo partly drawn) [Example 142, [2-(2,6-dioxopiperidin-3-yl)-4-[(3R)-oxan-3-yloxy]-3-oxo-2,3-dihydro-1H-isoindol-5-yl]methyl N-(4-phenoxyphenyl)carbamate], in assay [1], the pIC50 was 6.84 and the Emax was 139%. In addition, in assay [2], it took 22 nM to reach half-maximal degradation (DC50), the Dmax is 108% and the “Ratio of GSPT1 DC50/Cyclin E1 DC50” value is on record as over 635. In assay [3], the DC50 is over 14000 nM and the Dmax was 4%.
`O=C1CCC(N2Cc3ccc(COC(=O)Nc4ccc(Oc5cccc(F)c5)cc4)c(O[C@@H]4CCCOC4)c3C2=O)C(=O)N1` (stereo partly drawn) [Example 143, [2-(2,6-dioxopiperidin-3-yl)-4-[(3R)-oxan-3-yloxy]-3-oxo-2,3-dihydro-1H-isoindol-5-yl]methyl N-[4-(3-fluorophenoxy)phenyl]carbamate]: in assay [1], the negative logarithm of the IC50 (pIC50) is 7.18 and the Emax turned out to be 153%. Moreover, in assay [2], the DC50 was 31 nM, the Dmax stood at 110% and the “Ratio of GSPT1 DC50/Cyclin E1 DC50” value is over 445. Further, in assay [3], the DC50 is over 14000 nM and the Dmax came out at 8%.
As to `O=C1CCC(N2Cc3ccc(COC(=O)Nc4ccc(Oc5ccc(F)cc5)cc4)c(O[C@@H]4CCCOC4)c3C2=O)C(=O)N1` (stereo partly drawn) [Example 144, [2-(2,6-dioxopiperidin-3-yl)-4-[(3R)-oxan-3-yloxy]-3-oxo-2,3-dihydro-1H-isoindol-5-yl]methyl N-[4-(4-fluorophenoxy)phenyl]carbamate], in assay [1], the pIC50 was 7.64 and the Emax was found to be 145%. Also, in assay [2], the DC50 came out at 106 nM, the Dmax came out at 103% and the “Ratio of GSPT1 DC50/Cyclin E1 DC50” value is over 133. For the same compound, in assay [3], the DC50 is over 14000 nM and the Dmax was 4%.
Take `O=C1CCC(N2Cc3ccc(COC(=O)Nc4ccc(Oc5ccc(F)cc5F)cc4)c(O[C@@H]4CCCOC4)c3C2=O)C(=O)N1` (stereo partly drawn) [Example 145, [2-(2,6-dioxopiperidin-3-yl)-4-[(3R)-oxan-3-yloxy]-3-oxo-2,3-dihydro-1H-isoindol-5-yl]methyl N-[4-(2,4-difluorophenoxy)phenyl]carbamate]: in assay [1], the pIC50 was 7.43 and the Emax was 145%. Also, in assay [2], the DC50 stood at 57 nM, the Dmax was 111% and the “Ratio of GSPT1 DC50/Cyclin E1 DC50” value is reported as over 247. In addition, in assay [3], the 50% degradation concentration (DC50) was over 14000 nM and the Dmax came out at 9%.
Regarding `O=C1CCC(N2Cc3ccc(COC(=O)Nc4ccc(Oc5ccc(F)c(F)c5)cc4F)c(O[C@@H]4CCCOC4)c3C2=O)C(=O)N1` (stereo partly drawn) [Example 146, [2-(2,6-dioxopiperidin-3-yl)-4-[(3R)-oxan-3-yloxy]-3-oxo-2,3-dihydro-1H-isoindol-5-yl]methyl N-[4-(3,4-difluorophenoxy)-2-fluorophenyl]carbamate], in assay [1], the pIC50 is 7.42 and the Emax amounted to 133%. Further, in assay [2], the DC50 came to 47 nM, the Dmax was found to be 112% and the “Ratio of GSPT1 DC50/Cyclin E1 DC50” value is on record as over 296. In addition, in assay [3], the DC50 is over 14000 nM and the Dmax amounted to 8%.
